Compound	solubility (mole fraction) (in ethanol, 288.15 K)	solubility (mole fraction) (in ethanol, 293.15 K)	solubility (mole fraction) (in ethanol, 298.15 K)	solubility (mole fraction) (in ethanol, 303.15 K)	solubility (mole fraction) (in ethanol, 308.15 K)	solubility (mole fraction) (in water, 288.15 K)	solubility (mole fraction) (in water, 293.15 K)	solubility (mole fraction) (in water, 298.15 K)	solubility (mole fraction) (in water, 303.15 K)	solubility (mole fraction) (in water, 308.15 K)
N[C@@H](Cc1cnc[nH]1)C(=O)O	1.6e-05	2e-05	2.8e-05	3.1e-05	3.9e-05	0.00379	0.00418	0.0046	0.00515	0.0057
N[C@@H](Cc1c[nH]c2ccccc12)C(=O)O	0.000142	0.000178	0.000209	0.000246	0.000284	0.00116	0.00119	0.00122	0.00125	0.00128
